# Literature values, collected in patent US20070092586A1, “Compositions and methods for the administration psychotropic drugs which modulate body weight” (Alamo Pharmaceuticals, priority 2005, published 2007).
# Assays:
# [1] = lithium maintenance therapy; J. Clin. Psychopharmacol. 1988
patients with weight gains of over 10 kg [1] [%],SMILES,"increase in body weight (mean) (59 patients taking clozapine for an unstated period, P<0.05, Gerlach et al. 1989) [kg]","mean increase in body weight (over 21 months, patients who responded to clozapine and remained clinically stable, Jalenques et al. 1996) [kg]"
20,O=C([O-])[O-].[Li+].[Li+] [lithium],–,–
–,"CN1CCN(C2=Nc3cc(Cl)ccc3Nc3ccccc32)CC1 [clozapine, 8-chloro-11-(4-methyl-1-piperazinyl)-5H-dibenzo[b,e] [1,4] diazepine]",2.8,12.4
